# In patent publication US20240239861A1, “GLUCAGON-RECEPTOR SELECTIVE POLYPEPTIDES AND METHODS OF USE THEREOF” (i2O Therapeutics, Inc., priority 2016, published 2024):
# pEC50: −log10 of the molar value. Where a SMILES comes first, the peptide text is derived from it. [ ]: non-standard residue; d: D form. Aib = CC(C)(N)C(=O)O
# Target: human GCGR (Homo sapiens, UniProt P47871)
# Assay: Peptide-receptor mediated cAMP accumulation (LANCE Ultra cAMP) in CHO-K1 cells transfected with human GCGR
# Format: cell-based
# Conditions: FIG. 1A
row,activation profile at the human glucagon receptor (GCGR),Compound
1,much lower potency,GLP-1 (7-37): form of glucagon-like peptide-1 used as comparator in the receptor activation profiles of FIG. 1 [reference compound]

# Target: human GLP-1R (Homo sapiens, UniProt P43220)
# Assay: Peptide-receptor mediated cAMP accumulation (LANCE Ultra cAMP) in CHO-K1 cells transfected with human GLP-1R
# Format: cell-based
# Conditions: hGLP1 pEC50 (cAMP mean (n = 3): 11 point curve starting at 1 nM, Table 3)
# human GLP-1R, sequence (P43220 24-463): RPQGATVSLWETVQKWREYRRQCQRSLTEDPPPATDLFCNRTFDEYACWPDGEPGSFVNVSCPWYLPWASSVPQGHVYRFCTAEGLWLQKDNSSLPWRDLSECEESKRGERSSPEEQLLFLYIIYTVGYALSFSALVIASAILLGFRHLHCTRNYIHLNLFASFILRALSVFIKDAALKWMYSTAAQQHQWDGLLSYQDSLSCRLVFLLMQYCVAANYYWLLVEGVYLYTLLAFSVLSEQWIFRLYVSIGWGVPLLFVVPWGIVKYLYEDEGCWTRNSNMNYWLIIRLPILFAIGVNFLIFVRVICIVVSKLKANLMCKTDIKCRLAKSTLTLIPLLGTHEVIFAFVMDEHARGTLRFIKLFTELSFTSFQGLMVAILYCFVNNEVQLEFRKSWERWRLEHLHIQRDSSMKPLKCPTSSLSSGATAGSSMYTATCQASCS
row,Compound,pEC50
1,CC(C)C[C@H](NC(=O)[C@H](Cc1ccc(O)cc1)NC(=O)[C@H](CCCCN)NC(=O)[C@H](CO)NC(=O)[C@H](Cc1ccc(O)cc1)NC(=O)[C@H](CC(=O)O)NC(=O)[C@H](CO)NC(=O)[C@@H](NC(=O)[C@H](Cc1ccccc1)NC(=O)[C@@H](NC(=O)CNC(=O)[C@H](Cc1c[nH]cn1)NC(=O)[C@H](CO)NC(=O)[C@@H](N)Cc1ccc(O)cc1)[C@@H](C)O)[C@@H](C)O)C(=O)N[C@@H](CC(=O)O)C(=O)NC(C)(C)C(=O)N[C@@H](CCCCN)C(=O)N[C@@H](CCCNC(=N)N)C(=O)N[C@@H](C)C(=O)N[C@@H](CCC(N)=O)C(=O)N[C@@H](CCC(=O)O)C(=O)N[C@@H](Cc1ccccc1)C(=O)N[C@H](C(=O)NC(C)(C)C(=O)N[C@@H](Cc1c[nH]c2ccccc12)C(=O)N[C@@H](CC(C)C)C(=O)N[C@@H](CCC(=O)O)C(=O)N[C@@H](CC(=O)O)C(=O)N[C@@H](CCC(=O)O)C(=O)N1CCC[C@H]1C(=O)N[C@@H](CO)C(=O)N[C@@H](CO)C(=O)NCC(=O)N[C@@H](CCCCN)C(=O)N[C@@H](CCCCN)C(=O)N1CCC[C@H]1C(=O)N1CCC[C@H]1C(=O)N[C@@H](CO)C(=O)O)C(C)C [Compound A88] (H-YSHGTFTSDYSKYLD[Aib]KRAQEFV[Aib]WLEDEPSSGKKPPS-OH),< 9.00
2,CC(C)C[C@H](NC(=O)[C@H](Cc1ccc(O)cc1)NC(=O)[C@H](CCCCN)NC(=O)[C@H](CO)NC(=O)[C@H](Cc1ccc(O)cc1)NC(=O)[C@H](CC(=O)O)NC(=O)[C@H](CO)NC(=O)[C@@H](NC(=O)[C@H](Cc1ccccc1)NC(=O)[C@@H](NC(=O)CNC(=O)[C@H](Cc1c[nH]cn1)NC(=O)[C@H](CO)NC(=O)[C@@H](N)Cc1ccc(O)cc1)[C@@H](C)O)[C@@H](C)O)C(=O)N[C@@H](CC(=O)O)C(=O)NC(C)(C)C(=O)N[C@@H](CCCCN)C(=O)N[C@@H](CCCNC(=N)N)C(=O)N[C@@H](C)C(=O)N[C@@H](CCC(N)=O)C(=O)N[C@@H](CCC(=O)O)C(=O)N[C@@H](Cc1ccccc1)C(=O)N[C@H](C(=O)NC(C)(C)C(=O)N[C@@H](Cc1c[nH]cn1)C(=O)N[C@@H](CC(C)C)C(=O)N[C@@H](CCC(=O)O)C(=O)N[C@@H](CC(=O)O)C(=O)N[C@@H](CCC(=O)O)C(=O)N1CCC[C@H]1C(=O)N[C@@H](CO)C(=O)N[C@@H](CO)C(=O)NCC(=O)N[C@@H](CCCCN)C(=O)N1CCC[C@H]1C(=O)N1CCC[C@H]1C(=O)N1CCC[C@H]1C(=O)N[C@@H](CO)C(=O)O)C(C)C [Compound A89] (H-YSHGTFTSDYSKYLD[Aib]KRAQEFV[Aib]HLEDEPSSGKPPPS-OH; N-terminus assumed),< 9.00
3,CC(C)C[C@H](NC(=O)[C@H](Cc1ccc(O)cc1)NC(=O)[C@H](CCCCN)NC(=O)[C@H](CO)NC(=O)[C@H](Cc1ccc(O)cc1)NC(=O)[C@H](CC(=O)O)NC(=O)[C@H](CO)NC(=O)[C@@H](NC(=O)[C@H](Cc1ccccc1)NC(=O)[C@@H](NC(=O)CNC(=O)[C@H](Cc1c[nH]cn1)NC(=O)[C@H](CO)NC(=O)[C@@H](N)Cc1ccc(O)cc1)[C@@H](C)O)[C@@H](C)O)C(=O)N[C@@H](CC(=O)O)C(=O)NC(C)(C)C(=O)N[C@@H](CCCCN)C(=O)N[C@@H](C)C(=O)N[C@@H](C)C(=O)N[C@@H](CCC(N)=O)C(=O)N[C@@H](CCC(=O)O)C(=O)N[C@@H](Cc1ccccc1)C(=O)N[C@H](C(=O)NC(C)(C)C(=O)N[C@@H](Cc1c[nH]c2ccccc12)C(=O)N[C@@H](CC(C)C)C(=O)N[C@@H](CCC(=O)O)C(=O)N[C@@H](CC(=O)O)C(=O)N[C@@H](CCC(=O)O)C(=O)N1CCC[C@H]1C(=O)N[C@@H](CO)C(=O)N[C@@H](CO)C(=O)NCC(=O)N[C@@H](CCCCN)C(=O)N1CCC[C@H]1C(=O)N1CCC[C@H]1C(=O)N1CCC[C@H]1C(=O)N[C@@H](CO)C(=O)O)C(C)C [Compound A90] (H-YSHGTFTSDYSKYLD[Aib]KAAQEFV[Aib]WLEDEPSSGKPPPS-OH; N-terminus assumed),< 9.00
4,CC(C)C[C@H](NC(=O)[C@H](Cc1ccc(O)cc1)NC(=O)[C@H](CCCCN)NC(=O)[C@H](CO)NC(=O)[C@H](Cc1ccc(O)cc1)NC(=O)[C@H](CC(=O)O)NC(=O)[C@H](CO)NC(=O)[C@@H](NC(=O)[C@H](Cc1ccccc1)NC(=O)[C@@H](NC(=O)CNC(=O)[C@H](CCC(N)=O)NC(=O)[C@H](CO)NC(=O)[C@@H](N)Cc1ccc(O)cc1)[C@@H](C)O)[C@@H](C)O)C(=O)N[C@@H](CC(=O)O)C(=O)NC(C)(C)C(=O)N[C@@H](CCCCN)C(=O)N[C@@H](C)C(=O)N[C@@H](C)C(=O)N[C@@H](CCC(N)=O)C(=O)N[C@@H](CCC(=O)O)C(=O)N[C@@H](Cc1ccccc1)C(=O)N[C@H](C(=O)NC(C)(C)C(=O)N[C@@H](Cc1c[nH]c2ccccc12)C(=O)N[C@@H](CC(C)C)C(=O)N[C@@H](CCC(=O)O)C(=O)N[C@@H](CC(=O)O)C(=O)N[C@@H](CCC(=O)O)C(=O)N1CCC[C@H]1C(=O)N[C@@H](CO)C(=O)N[C@@H](CO)C(=O)NCC(=O)N[C@@H](CCCCN)C(=O)N1CCC[C@H]1C(=O)N1CCC[C@H]1C(=O)N1CCC[C@H]1C(=O)N[C@@H](CO)C(=O)O)C(C)C [Compound A96] (H-YSQGTFTSDYSKYLD[Aib]KAAQEFV[Aib]WLEDEPSSGKPPPS-OH; N-terminus assumed),< 9.00

# The next lines start with the values.
row,pEC50,Compound
1,< 9.00,CC(C)C[C@H](NC(=O)[C@H](Cc1ccc(O)cc1)NC(=O)[C@H](CCCCN)NC(=O)[C@H](CO)NC(=O)[C@H](Cc1ccc(O)cc1)NC(=O)[C@H](CC(=O)O)NC(=O)[C@H](CO)NC(=O)[C@@H](NC(=O)[C@H](Cc1ccccc1)NC(=O)[C@@H](NC(=O)CNC(=O)[C@H](Cc1c[nH]cn1)NC(=O)[C@H](CO)NC(=O)[C@@H](N)Cc1ccc(O)cc1)[C@@H](C)O)[C@@H](C)O)C(=O)N[C@@H](CC(=O)O)C(=O)N[C@@H](C)C(=O)N[C@@H](C)C(=O)N[C@@H](CCCNC(=N)N)C(=O)N[C@@H](C)C(=O)N[C@@H](CCC(N)=O)C(=O)N[C@@H](CCC(=O)O)C(=O)N[C@@H](Cc1ccccc1)C(=O)N[C@H](C(=O)N[C@@H](CCCCN)C(=O)N[C@@H](Cc1c[nH]c2ccccc12)C(=O)N[C@@H](CC(C)C)C(=O)N[C@@H](CCC(=O)O)C(=O)N[C@@H](CC(=O)O)C(=O)N[C@@H](CCC(=O)O)C(=O)N1CCC[C@H]1C(=O)N[C@@H](CCCCN)C(=O)N[C@@H](CO)C(=O)N[C@@H](CCCCN)C(=O)N[C@@H](CO)C(=O)N1CCC[C@H]1C(=O)N1CCC[C@H]1C(=O)N1CCC[C@H]1C(=O)N[C@@H](CO)C(N)=O)C(C)C [Compound A80] (H-YSHGTFTSDYSKYLDAARAQEFVKWLEDEPKSKSPPPS-NH2; N-terminus assumed)
2,< 9.00,CC(C)C[C@H](NC(=O)[C@H](Cc1ccc(O)cc1)NC(=O)[C@H](CCCCN)NC(=O)[C@H](CO)NC(=O)[C@H](Cc1ccc(O)cc1)NC(=O)[C@H](CC(=O)O)NC(=O)[C@H](CO)NC(=O)[C@@H](NC(=O)[C@H](Cc1ccccc1)NC(=O)[C@@H](NC(=O)CNC(=O)[C@H](Cc1c[nH]cn1)NC(=O)[C@H](CO)NC(=O)[C@@H](N)Cc1ccc(O)cc1)[C@@H](C)O)[C@@H](C)O)C(=O)N[C@@H](CC(=O)O)C(=O)NC(C)(C)C(=O)N[C@@H](CCCCN)C(=O)N[C@@H](CCCNC(=N)N)C(=O)N[C@@H](C)C(=O)N[C@@H](CCC(N)=O)C(=O)N[C@@H](CCC(=O)O)C(=O)N[C@@H](Cc1ccccc1)C(=O)N[C@H](C(=O)NC(C)(C)C(=O)N[C@@H](Cc1c[nH]c2ccccc12)C(=O)N[C@@H](CC(C)C)C(=O)N[C@@H](CCC(=O)O)C(=O)N[C@@H](CC(=O)O)C(=O)N[C@@H](CCC(=O)O)C(=O)N1CCC[C@H]1C(=O)N[C@@H](CO)C(=O)N[C@@H](CO)C(=O)NCC(=O)N[C@@H](CCCCN)C(=O)N1CCC[C@H]1C(=O)N1CCC[C@H]1C(=O)N1CCC[C@H]1C(=O)N[C@@H](CO)C(N)=O)C(C)C [Compound A85] (H-YSHGTFTSDYSKYLD[Aib]KRAQEFV[Aib]WLEDEPSSGKPPPS-NH2; N-terminus assumed)
3,< 9.00,CC(C)C[C@H](NC(=O)[C@H](Cc1ccc(O)cc1)NC(=O)[C@H](CCCCN)NC(=O)[C@H](CO)NC(=O)[C@H](Cc1ccc(O)cc1)NC(=O)[C@H](CC(=O)O)NC(=O)[C@H](CO)NC(=O)[C@@H](NC(=O)[C@H](Cc1ccccc1)NC(=O)[C@@H](NC(=O)CNC(=O)[C@H](Cc1c[nH]cn1)NC(=O)[C@H](CO)NC(=O)[C@@H](N)Cc1ccc(O)cc1)[C@@H](C)O)[C@@H](C)O)C(=O)N[C@@H](CC(=O)O)C(=O)NC(C)(C)C(=O)N[C@@H](CCCCN)C(=O)N[C@@H](CCCNC(=N)N)C(=O)N[C@@H](C)C(=O)N[C@@H](CCC(N)=O)C(=O)N[C@@H](CCC(=O)O)C(=O)N[C@@H](Cc1ccccc1)C(=O)N[C@H](C(=O)NC(C)(C)C(=O)N[C@@H](Cc1c[nH]c2ccccc12)C(=O)N[C@@H](CC(C)C)C(=O)N[C@@H](CCC(=O)O)C(=O)N[C@@H](CC(=O)O)C(=O)N[C@@H](CCC(=O)O)C(=O)N[C@@H](CCCCN)C(=O)N[C@@H](CO)C(=O)N[C@@H](CO)C(=O)NCC(=O)N[C@@H](CCCCN)C(=O)N1CCC[C@H]1C(=O)N1CCC[C@H]1C(=O)N1CCC[C@H]1C(=O)N[C@@H](CO)C(=O)O)C(C)C [Compound A87] (H-YSHGTFTSDYSKYLD[Aib]KRAQEFV[Aib]WLEDEKSSGKPPPS-OH; N-terminus assumed)
